What all share (assay type): cell-based
The target of assay [1] is T1, human EDG8 (S1PR5) receptor (Homo sapiens, UniProt Q9H228).
T1 construct: carries the transgenes human EDG8 (S1PR5) receptor (Acession number NP_110387.1); expressed in transfected cells; host or cells: CHO-A21-EDG8#12 (CHO clone co-expressing mitochondrial aequorin and chimaeric Gaqi5)
Put plainly: Aequorin assay, agonist potency, CHO-A21-EDG8#12 cells. The settings on record: agonist mode, aequorin luminescence; read-out: S1P5 EC50 range #. The essentials:
(§1)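 CHO cells coexpressing receptor, mitochondrial aequorin and Gαqi5 (S1P3 pool: GNA16) were loaded overnight at RT with 5 μM coelenterazine h in 0.1% fatty-acid-free BSA buffer. Cells were injected onto compound, luminescence recorded 90 s and integrated, normalised to digitonin or 20 μM ATP; sigmoidal fit.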

A further assay deals with T2, S1P4 (Homo sapiens, UniProt O95977).
T2 sequence (O95977 1-384): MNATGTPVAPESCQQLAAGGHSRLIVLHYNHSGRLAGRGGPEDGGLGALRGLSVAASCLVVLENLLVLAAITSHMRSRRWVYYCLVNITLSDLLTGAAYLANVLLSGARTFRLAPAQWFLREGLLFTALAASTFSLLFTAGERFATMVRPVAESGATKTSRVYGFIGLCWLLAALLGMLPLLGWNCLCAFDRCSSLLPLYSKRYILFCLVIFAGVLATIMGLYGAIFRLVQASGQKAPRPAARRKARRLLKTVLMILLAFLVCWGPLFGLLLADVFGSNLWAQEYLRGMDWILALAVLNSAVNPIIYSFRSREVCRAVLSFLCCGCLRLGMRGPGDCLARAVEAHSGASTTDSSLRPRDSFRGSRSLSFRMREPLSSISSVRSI
Put plainly: Aequorin assay, agonist potency, S1P4. As to conditions: agonist mode, aequorin luminescence. The essentials:
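Cells loaded overnight at RT with 5 μM coelenterazine h in DMEM/HAM's F12 with HEPES plus 0.1% fatty acid-free BSA, then injected onto compounds; agonist-induced calcium luminescence recorded for 90 s and integrated. Signal normalised to digitonin (100 μM) or ATP (20 μM) wells, S1P as reference agonist; sigmoidal nonlinear regression.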

For assay [2], the target named is T3, human EDG1 (S1PR1) receptor (Homo sapiens, UniProt P21453).
T3 construct: expressed in transfected cells; host or cells: CHO-A21-Edg1#17 (CHO clone co-expressing mitochondrial aequorin and chimaeric Gaqi5)
Put plainly: Aequorin assay, agonist potency, CHO-A21-Edg1#17 cells. As to conditions: agonist mode, aequorin luminescence; read-out: S1P1 EC50. The procedure, abridged:
as §1

pEC50: −log10 of the molar value.

T3 sequence (P21453 whole entry): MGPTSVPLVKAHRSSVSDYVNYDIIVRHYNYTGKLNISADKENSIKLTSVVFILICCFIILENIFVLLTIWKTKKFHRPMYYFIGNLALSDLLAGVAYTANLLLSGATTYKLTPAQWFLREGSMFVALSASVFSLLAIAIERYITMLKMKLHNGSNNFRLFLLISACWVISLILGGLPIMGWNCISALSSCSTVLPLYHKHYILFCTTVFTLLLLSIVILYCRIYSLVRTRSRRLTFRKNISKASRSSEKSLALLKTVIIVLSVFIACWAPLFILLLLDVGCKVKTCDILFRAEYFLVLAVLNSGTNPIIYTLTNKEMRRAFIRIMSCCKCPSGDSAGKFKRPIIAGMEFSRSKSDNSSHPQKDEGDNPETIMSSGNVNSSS
T1 sequence (Q9H228 whole entry): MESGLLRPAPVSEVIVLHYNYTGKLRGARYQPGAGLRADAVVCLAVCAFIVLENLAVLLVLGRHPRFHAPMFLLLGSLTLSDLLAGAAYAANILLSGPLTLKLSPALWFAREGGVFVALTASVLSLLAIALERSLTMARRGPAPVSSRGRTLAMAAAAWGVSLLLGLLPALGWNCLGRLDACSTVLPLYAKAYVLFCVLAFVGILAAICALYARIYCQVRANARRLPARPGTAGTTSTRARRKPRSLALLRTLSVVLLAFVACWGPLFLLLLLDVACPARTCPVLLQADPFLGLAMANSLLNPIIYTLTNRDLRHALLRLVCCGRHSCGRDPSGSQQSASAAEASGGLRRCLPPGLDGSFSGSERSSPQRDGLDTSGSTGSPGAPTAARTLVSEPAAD

Turning to `O=C(O)CN1CC2(Cc3ccc(C#Cc4ccc(OC5CCCC5)nc4)cc3C2)C1` [Example 78, 2-(5′-((6-(cyclopentyloxy)pyridin-3-yl)ethynyl)-1′,3′-dihydrospiro[azetidine-3,2′-inden]-1-yl)acetic acid], the pEC50 – broadly, −log10 of the EC50, conventionally taken in molar units – in assay [1] was at least 8.00; on S1P4, above 6.00; in assay [2] it was above 6.00.

Turning to `O=C(O)C1(CN2CC3(Cc4ccc(OC5Cc6ccccc6C5)cc4C3)C2)CC1` [Example 127, 1-((5′-((2,3-dihydro-1H-inden-2-yl)oxy)-1′,3′-dihydrospiro[azetidine-3,2′-inden]-1-yl)methyl)cyclopropanecarboxylic acid], the pEC50 is 5.00 to 6.00 in assay [1], above 6.00 on S1P4 and below 6.00 in assay [2].

Consider `O=C(O)C1(CN2CC3(Cc4ccc(OCc5ccc(Cl)cc5)cc4C3)C2)CC1` [Example 33, 1-((5′-((4-chlorobenzyl)oxy)-1′,3′-dihydrospiro[azetidine-3,2′-inden]-1-yl)methyl)cyclopropanecarboxylic acid], for which the pEC50 in assay [1] is 5.00 to 6.00; at S1P4 it was above 6.00; in assay [2], below 6.00.

With `O=C(O)CN1CC2(Cc3ccc(C#Cc4ccccc4Cl)cc3C2)C1` [Example 80, 2-(5′-((2-chlorophenyl)ethynyl)-1′,3′-dihydrospiro[azetidine-3,2′-inden]-1-yl)acetic acid], the pEC50 is at least 8.00 in assay [1], above 6.00 on S1P4 and below 6.00 in assay [2].

For the compound `COc1cccc(Cl)c1COc1ccc2c(c1)CC1(C2)CN(CC2(C(=O)O)CC2)C1` [Example 31, 1-((5′-((2-chloro-6-methoxybenzyl)oxy)-1′,3′-dihydrospiro[azetidine-3,2′-inden]-1-yl)methyl)cyclopropanecarboxylic acid compound with 2,2,2-trifluoroacetic acid (1:1)], the pEC50 in assay [1] was 6.00 to 7.00; on S1P4, above 6.00; in assay [2] it was below 6.00.

`O=C(O)C1CC(N2CC3(Cc4ccc(OCc5c(Cl)cccc5C5CC5)cc4C3)C2)C1` (stereo not drawn) [Example 91, 3-(5′-((2-chloro-6-cyclopropylbenzyl)oxy)-1′,3′-dihydrospiro[azetidine-3,2′-inden]-1-yl)cyclobutanecarboxylic acid]: the pEC50 in assay [1] is at least 8.00; on S1P4, above 6.00; in assay [2], above 6.00.

Regarding `O=C(O)CN1CC2(Cc3ccc(OCc4c(Cl)cccc4C(F)(F)F)cc3C2)C1` [Example 20, 2,2,2-trifluoroacetic acid compound with 2-(5′-((2-chloro-6-(trifluoromethyl)benzyl)oxy)-1′,3′-dihydrospiro[azetidine-3,2′-inden]-1-yl)acetic acid (1:1)], the pEC50 in assay [1] was at least 8.00; on S1P4, above 6.00; in assay [2], below 6.00.

As to `COc1ccc(C#Cc2ccc3c(c2)CC2(C3)CN(C3CC(C(=O)O)C3)C2)c(C)c1` (stereo not drawn) [Example 101, 3-(5′-((4-methoxy-2-methylphenyl)ethynyl)-1′,3′-dihydrospiro[azetidine-3,2′-inden]-1-yl)cyclobutanecarboxylic acid], the pEC50 in assay [1] was 5.00 to 6.00; at S1P4, above 6.00; in assay [2] it was below 6.00.

Take `CCc1ccc(COc2ccc3c(c2)CC2(C3)CN(CC(=O)O)C2)c(Cl)c1` [Example 4, 2-(5′-((2-chloro-4-ethylbenzyl)oxy)-1′,3′-dihydrospiro[azetidine-3,2′-inden]-1-yl)acetic acid]: the pEC50 in assay [1] is 6.00 to 7.00; at S1P4, above 6.00; in assay [2], below 6.00.

For `O=C(O)CN1CC2(Cc3ccc(OC4CCc5cc(Cl)cc(Cl)c54)cc3C2)C1` (stereo not drawn) [Example 69, 2-(5′-((5,7-dichloro-2,3-dihydro-1H-inden-1-yl)oxy)-1′,3′-dihydrospiro[azetidine-3,2′-inden]-1-yl)acetic acid], the pEC50 in assay [1] is at least 8.00; on S1P4, above 6.00; in assay [2], below 6.00.

As for `O=C(O)CN1CC2(Cc3ccc(OC4CCc5cccc(Cl)c54)cc3C2)C1` (stereo not drawn) [Example 67, 2-(5′-((7-chloro-2,3-dihydro-1H-inden-1-yl)oxy)-1′,3′-dihydrospiro[azetidine-3,2′-inden]-1-yl)acetic acid], the pEC50 is at least 8.00 in assay [1], above 6.00 on S1P4 and below 6.00 in assay [2].

For `CCOc1cc(F)c(COc2ccc3c(c2)CC2(C3)CN(C3CC(C(=O)O)C3)C2)c(F)c1` (stereo not drawn) [Example 85, 3-(5′-((4-ethoxy-2,6-difluorobenzyl)oxy)-1′,3′-dihydrospiro[azetidine-3,2′-inden]-1-yl)cyclobutanecarboxylic acid], the values for the pEC50 (in assay [1]; on S1P4; in assay [2]) were 5.00 to 6.00, above 6.00 and below 6.00, respectively.

Take `O=C(O)C1(CN2CC3(Cc4ccc(OCc5cc(Cl)ccc5Cl)cc4C3)C2)CC1` [Example 36, 1-((5′-((2,5-dichlorobenzyl)oxy)-1′,3′-dihydrospiro[azetidine-3,2′-inden]-1-yl)methyl)cyclopropanecarboxylic acid compound with acetic acid (1:1)]: the pEC50 was 5.00 to 6.00 in assay [1], above 6.00 on S1P4 and below 6.00 in assay [2].

`O=C(O)C1(CN2CC3(Cc4ccc(OCc5ccccc5C(F)(F)F)cc4C3)C2)CC1` [Example 41, 1-((5′-((2-(trifluoromethyl)benzyl)oxy)-1′,3′-dihydrospiro[azetidine-3,2′-inden]-1-yl)methyl)cyclopropanecarboxylic acid compound with 2,2,2-trifluoroacetic acid (1:1)]: the figures for the pEC50 (in assay [1]; on S1P4; in assay [2]) were 5.00 to 6.00, above 6.00 and below 6.00, respectively.

Turning to `COc1cccc(F)c1COc1ccc2c(c1)CC1(C2)CN(CC(=O)O)C1` [Example 10, 2,2,2-trifluoroacetic acid compound with 2-(5′-((2-fluoro-6-methoxybenzyl)oxy)-1′,3′-dihydrospiro[azetidine-3,2′-inden]-1-yl)acetic acid (1:1)], the figures for the pEC50 (in assay [1]; on S1P4; in assay [2]) were 6.00 to 7.00, above 6.00 and below 6.00, respectively.

For `O=C(O)C1(CN2CC3(Cc4ccc(OCc5ccccc5Cl)cc4C3)C2)CC1` [Example 141, 1-((5′-((2-chlorobenzyl)oxy)-1′,3′-dihydrospiro[azetidine-3,2′-inden]-1-yl)methyl)cyclopropanecarboxylic acid], the figures for the pEC50 (in assay [1]; on S1P4; in assay [2]) were 5.00 to 6.00, above 6.00 and below 6.00, respectively.

In the case of `O=C(O)CN1CC2(Cc3ccc(OCc4cccc5c4CCC5)cc3C2)C1` [Example 74, 2-(5′-((2,3-dihydro-1H-inden-4-yl)methoxy)-1′,3′-dihydrospiro[azetidine-3,2′-inden]-1-yl)acetic acid], the pEC50 in assay [1] is at least 8.00; on S1P4 it was above 6.00; in assay [2], below 6.00.

As for `CCc1cccc(Cl)c1COc1ccc2c(c1)OC1(C2)CN(CC(C)CC(=O)O)C1` (stereo not drawn) [Example 157, 4-(6′-((2-chloro-6-ethylbenzyl)oxy)-3′H-spiro[azetidine-3,2′-benzofuran]-1-yl)-3-methylbutanoic acid], the pEC50 in assay [1] is at least 8.00; on S1P4 it was above 6.00; in assay [2], below 6.00.
